Where a name gives a salt, the structure may show the parent alone. Read-outs that look alike come from different tables or passages of the source.
Columns and labels:
[1] = tested on: A549 human lung cancer cell line; assay: In vitro cytotoxicity (MTT), A549; assay type: cell-based; settings: A549, 72 h
Method in brief: (§1)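 Cells at 2,500 per well were exposed to two-fold serial compound dilutions in triplicate for three days at 36° C under 5% CO2, with doxorubicin as reference. MTT was added for 2–4 h, and the formazan was dissolved in DMSO and read at 570 nm. IC50 is the concentration killing 50% of cells relative to drug-free controls.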

[2] = tested on: HCT-8 human colon cancer cell line; assay: In vitro cytotoxicity (MTT), HCT-8; assay type: cell-based; settings: HCT-8, 72 h, read-out: In Vitro Cytotoxicity (IC50)
Method: (§2) Metabolic activity was measured by the cells' ability to reduce the tetrazolium dye, 3-(4,5-dimethylthiazol-2-yl)-2,5-diphenyltetrazolium bromide (MTT), to a quantifiable colored formasan derivative. Surviving cells reduce the MTT dye. The inhibitory concentrations of killing 50% of the cells (IC50 s) were calculated. Testing was in accord with the following protocol:
(§3) Test compounds and a reference antineoplastic agent, ADRIAMYCIN (doxorubicin hydrochloride), were dissolved in dimethyl sulfoxide (DMSO) and diluted, first with Earle's Balanced Salt Solution, followed by culture medium, to twice the highest concentration of the compound to be tested. From this concentrated stock, two-fold serial dilutions were prepared in 96-well microtiter trays, each well containing twice the desired final concentration of the compound. Each concentration was tested in triplicate and compared to triplicate drug-free controls.
(§4) The cells were grown in the same medium used for diluting the compounds. Adherent cells were harvested by trypsinization according to the following procedure:
After harvesting by trypsinization, viable cell counts were determined and cell density was adjusted to 25,000 cells/mL. Inoculum (0.1 mL) was then added to each well for a final concentration of 2,500 cells per well. Addition of the inoculum was used to dilute the test compounds to the desired concentration. […]

[3] = tested on: HT-29 human colon cancer cell line; assay: In vitro cytotoxicity (MTT), HT-29; assay type: cell-based; settings: HT-29, 72 h, read-out: In Vitro Cytotoxicity (IC50), HT-29, Table 2, ADR: average of two tests
Method in brief: as §1

[4] = tested on: P388-D1 mouse leukemia cell line; assay: In vitro cytotoxicity (MTT), P388-D1; assay type: cell-based; settings: for IC50: Mus musculus, P388D1, 72 h, read-out: In Vitro Cytotoxicity (IC50), P388-D1
Method: as §2, §3, §4
(§5) After harvesting by trypsinization, viable cell counts were determined and cell density was adjusted to 25,000 cells/mL. Inoculum (0.1 mL) was then added to each well for a final concentration of 2,500 cells per well. Addition of the inoculum was used to dilute the test compounds to the desired concentration.
(§6) Microtiter trays were incubated for three days at 36° C. in a humidified atmosphere containing 5% carbon dioxide.
(§7) After three days, 20 microliters of 5 mg/mL MTT in phosphate-buffered solution were added to each well of the microtiter trays. The microtiter trays were then returned to the incubator for two to four hours to allow the surviving cells to reduce the dye. After this incubation, both the medium and the unreduced dye were removed by aspiration. DMSO was added to each well to dissolve the water-insoluble, colored end product of the dye reduction for spectrophotometric measurement at 570 nm.
The results obtained which clearly show the cytotoxicity of the compounds of Examples 5, 6, 7 and 8 against […] tumor cell lines A549, HCT-8, HT-29 and P388-D1, are illustrated in Table 1. (A549 is a human lung cancer cell line; HCT-8 is a human colon cancer cell line; HT-29 is a human colon cancer cell line; and P388-D1 is a mouse leukemia cell line.)

[5] = tested on: P388 mouse leukemia cell line; assay: In vitro cytotoxicity (MTT), P388; assay type: cell-based; settings: P388, 72 h, read-out: In Vitro Cytotoxicity (IC50)
Method in brief: (§8)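 Cells seeded at 2,500 per well with two-fold compound dilutions, in triplicate, and incubated 3 days at 36 °C in 5% CO2. The P388-ADR(0.1) inoculum is grown in 0.1 mcg.ml ADRIAMYCIN, the (0.0) inoculum drug-free. MTT reduction read at 570 nm after DMSO solubilisation; IC50 calculated.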

[6] = tested on: P388-ADR(0.0), ADRIAMYCIN-resistant variant of P388; assay: In vitro cytotoxicity (MTT), P388-ADR(0.0); assay type: cell-based; settings: Mus musculus, 72 h, inoculum grown in drug-free medium, Table 2
Method in brief: as §8

[7] = tested on: P388-ADR(0.1), ADRIAMYCIN-resistant variant of P388; assay: In vitro cytotoxicity (MTT), P388-ADR(0.1); assay type: cell-based; settings: Mus musculus, 72 h, inoculum grown with 0.1 mcg.ml ADRIAMYCIN, Table 2, ADR value marked *: single test
Method: as §2, §3, §4, §5, §6
as §7, with “nm. […]” for “nm.”

B16F10 mouse melanoma = assay: In vitro cytotoxicity (MTT), B16F10; assay type: cell-based; settings: B16-F10, 72 h, read-out: In Vitro Cytotoxicity (IC50)
P388 ascitic leukemia = assay: In vivo activity against systemic tumor P388; parameters: species or system mouse; settings: five days
Method: Prior to testing, P388 was propagated intraperitoneally in female DBA2 mice. The ascitic tumors were intraperitoneally injected in female B6 D2 F1 mice at a concentration of 10^6 cells per mouse. The mice were treated with antiumor agents administered once daily for five consecutive days, with the antineoplastic 5-fluorouracil used as a positive control.
All drugs were administered intraperitoneally in 5% aqueous dextrose or other suitable diluent. Drug efficacy was evaluated based on prolongation of mean survival time (MST). Improvement of MST was calculated as % MST(T/C), the percent ratio of mean survival times of test (T) versus control (C) mice. Compounds having % MST(T/C) values greater than 125 are considered to have significant activity. The antitumor activity of the two compounds in the P388 systemic leukemia model is illustrated in Table 3 below.

[8] = tested on: C-26 colon adenocarcinoma; assay: In vivo activity against C-26 colon adenocarcinoma implanted IP (Example 42); parameters: species or system mouse; settings: dose 40, IP days 1, 5, 9
Method: In the case of C-26 colon adenocarcinema, the tumor was implanted IP into mice on day 0. The compound to be tested. (the compound of Example 8) was administered IP at days 1, 5, and 9 and the results recorded on day 60. % MST(T/C) values were calculated as before and are shown below for two separate trials.

M5076 ovarian sarcoma = assay: In vivo activity against M5076 ovarian sarcoma implanted subcutaneously; parameters: species or system mouse; settings: IP every 2 days, days 1-11
Method: For M5076 ovarian sarcoma, the solid tumor was implanted subcutaneously into mice on day 0. The compound to be tested (the compound of Example 8) was administered IP every 2 days up to day 11, starting on day 1. Both % MST(T/C) and % MTM(T/C) values were calculated, and are presented below.

Aqueous solubility = assay type: physicochemical; settings: water
Description: The effect of peptidyl substitution on the solubility of the compounds of the invention was examined by dissolving samples thereof in water.

[9] = read-out: In Vitro Cytotoxicity (IC50), A549, Table 2, ADR: average of two tests

COc1cccc2c1C(=O)c1c(O)c3c(c(O)c1C2=O)C[C@@](O)(C(=O)CO)C[C@@H]3O[C@H]1C[C@H](N)[C@H](O)[C@H](C)O1 [ADR, doxorubicin hydrochloride, reference compound]
IC50 [1, 9]: 0.313 µg/mL
IC50 [2]: 0.038 µg/mL
IC50 [3]: 0.285 µg/mL
IC50 ([4]; Table 1, three day MTT assay): 0.016 µg/mL
IC50 ([4]; Table 2, ADR value marked *: single test): 0.025 µg/mL
In Vitro Cytotoxicity (IC50) ([4]; P388-D1, Table 1, three day MTT assay, 4320 min, hydrochloride): 0.010
IC50 [5]: 0.0022 µg/mL
IC50 [6]: 2.59 µg/mL
IC50 [7]: 1.9 µg/mL
IC50 (B16F10 mouse melanoma): 0.005 µg/mL

CCC[C@H](N)C(=O)NC1CCN(c2c(F)cc3c(=O)c(C(=O)O)cn4c3c2Oc2ccccc2-4)C1 (some centres unmarked) [Example 8, 1-(3-norvalylaminopyrrolidin-1-yl)-2-fluoro-4-oxo-4H-quino[2,3,4-i,j][1,4]benzoxazine-5-carboxylic acid hydrochloride]
IC50 ([1]; read-out: In Vitro Cytotoxicity (IC50), A549, Table 1, three day MTT assay): 0.512 µg/mL
IC50 [1, 9]: 0.591 µg/mL
IC50 [2]: 0.075 µg/mL
IC50 [3]: 0.195 µg/mL
IC50 ([4]; Table 1, three day MTT assay): < 0.05 µg/mL
IC50 [5]: 0.0395 µg/mL
IC50 [6]: 0.394 µg/mL
IC50 (B16F10 mouse melanoma): 0.0271 µg/mL
% MST(T/C) (P388 ascitic leukemia; 3.9 mg/kg IP once daily): 177.3%
% MST(T/C) (P388 ascitic leukemia; 7.81 mg/kg IP once daily): 200.0%
% MST(T/C) (P388 ascitic leukemia; 15.62 mg/kg IP once daily): 209.1%
% MST(T/C) (P388 ascitic leukemia; 31.25 mg/kg IP once daily): 63.6%
C-26 % MST(T/C) ([8]; first trial): 52.3%
C-26 % MST(T/C) ([8]; second trial): 43.9%
M5706 % MST(T/C) (M5076 ovarian sarcoma; dose 5): 148.4%
M5706 % MTM(T/C) (M5076 ovarian sarcoma; dose 5): 62%
M5706 % MST(T/C) (M5076 ovarian sarcoma; dose 10): 154.4%
M5706 % MTM(T/C) (M5076 ovarian sarcoma; dose 10): 49%
M5706 % MST(T/C) (M5076 ovarian sarcoma; dose 20): 138.1%
M5706 % MTM(T/C) (M5076 ovarian sarcoma; dose 20): 22%
M5706 % MST(T/C) (M5076 ovarian sarcoma; dose 40): 39.1%
solubility (Aqueous solubility): 10.7 mg/mL
